Test results: US20070232904A1, “Application of Hyaluronic Acid to Sentinel Lymph Node Identification” (OAKLEY, INC., priority 2004, published 2007)

System: sentinel lymph node (SLN)
Test: Sentinel lymph node detection after submucosal injection in stomach and small intestine of laparotomized pig, observed by color change
Format: in vivo
Conditions: 0.5 mL submucosal
Procedure: A pig was laparotomized under general anesthesia and the mixture of the sodium hyaluronate and the patent blue prepared in (1) above and patent blue alone as a control were each injected at two locations which were in the tissues (submucosal) of the stomach and small intestine at 0.5 mL each, and migration from the lymphatic vessels to the lymph nodes was monitored for 3 hours after injection based on the changes in color under laparotomy. […] In addition, the colored lymph nodes were investigated histologically after 3 hours and after 24 hours. A pig was laparotomized under general anesthesia and the mixture of the sodium hyaluronate and the ferumoxides injection solution prepared in (1) above and the ferumoxides injection solution alone as a control were each injected at two locations which were in the tissues (submucosal) of the stomach and small intestine at 0.5 mL each, and migration from the lymphatic vessels to the lymph nodes was monitored for 3 hours after injection based on the changes in color under laparotomy. […] In addition, the colored lymph nodes were investigated histologically after 3 hours and after 24 hours. […]

CCN(CC)c1ccc(C(=C2C=CC(=[N+](CC)CC)C=C2)c2cc(O)c(S(=O)(=O)O)cc2S(=O)(=O)O)cc1 [patent blue]
time to almost complete disappearance from the associated lymphatic system (after injection): ≤ 2 h
time until staining of the lymphatic system / SLN after injection (stomach and small intestine wall): several minutes
